Source: patent EP0935963A2, “The use of MMP-13 selective inhibitors for the treatment of osteoarthritis and other matrix metalloproteinase-mediated disorders” (Pfizer Products Inc., priority 1997, dated 1999)
Like-named read-outs stand apart in the source and are kept apart here.

Assays:
[1] = molecular target: T1, MMP-13 (Homo sapiens, UniProt P45452); experiment: Inhibition of MMP-13, fluorescence assay; format: biochemical
Experimental: Human recombinant MMP-13 is activated with 2 mM APMA (p-aminophenyl mercuric acetate) for 1.5 hours, at 37°C and is then diluted to […] in assay buffer (50 mM Tris, pH 7.5, 200 mM sodium chloride, 5mM calcium chloride, 20µM zinc chloride, 0.02% Brij 35). Twenty-five microliters of diluted enzyme is added per well of a 96 well microfluor plate. The enzyme is then diluted in a 1:4 ratio in the assay by the addition of inhibitor and substrate to give a final concentration in the assay of 60 ng/ml.
Stock solutions (10 mM) of inhibitors are made up in dimethylsulfoxide and then diluted in assay buffer as per the inhibitor dilution scheme for inhibition of human collagenase-1. Twenty-five microliters of each concentration is added to triplicate wells of a microfluor plate. The final concentrations in the assay are 30 µM, 3 µM, 0.3 µM, and 0.03 µM.
Substrate (Dnp-Pro-Cha-Gly-Cys(Me)-His-Ala-Lys(NMA)-NH2) is prepared as for inhibition of human collagenase (MMP-1) and […] is added to each well to give a final assay concentration of 10 µM. Fluorescence readings (360 nm excitation; 450 nm emission) are taken at time 0 and every 5 minutes for 1 hour.
Positive controls and negative controls are set up in triplicate as outlined in the MMP-1 assay.
IC50's are determined as per inhibition of human collagenase (MMP-1). If IC50's are reported to be less than […], inhibitors are then assayed at final concentrations of 0.3 µM, 0.03 µM, 0.003 µM and 0.0003 µM.

[2] = system: cartilage conditioned medium collagenase activity; experiment: Collagen film assay with cartilage conditioned medium as enzyme source; format: biochemical
Experimental: (§1) Rat type I collagen is radiolabeled with ^14C acetic anhydride (T.E. Cawston and A.J. Barrett, Anal. Biochem., 99, 340-345 (1979)) and used to prepare 96 well plates containing radiolabeled collagen films (Barbara Johnson-Wint, Anal. Biochem., 104, 175-181 (1980)). When a solution containing collagenase is added to the well, the enzyme cleaves the insoluble collagen which unwinds and is thus solubilized. Collagenase activity is directly proportional to the amount of collagen solubilized, determined by the proportion of radioactivity released into the supernatant as measured in a standard scintillation counter. Collagenase inhibitors are, therefore, compounds which reduce the radioactive counts released with respect to the controls with no inhibitor present. One specific embodiment of this assay is described in detail below.
(§2) Stock solutions of test compound (10mM) in dimethylsulfoxide are prepared. Dilutions of the test compounds in the Tris buffer, above, are made to 0.2, 2.0, 20, 200, 2000 and 20000 nM.
(§3) 100 µl of appropriate drug dilution and 100 µl of diluted enzyme are pipetted into wells of a 96 well plate containing collagen films labeled with ^14C-collagen. The final enzyme concentration is 0.3 µg/ml while the final drug concentration is 0.1, 1.0, 10, 100, 1000 nM. Each drug concentration and control is analyzed in triplicate. Triplicate controls are also run for the conditions in which no enzyme is present and for enzyme in the absence of any compound.
(§4) The plates are incubated at 37°C for a time period such that around 30 - 50% of the available collagen is solubilized - determined by counting additional control wells at various time points. In most cases around 9 hours of incubation are required. When the assay has progressed sufficiently, the supernatant from each well is removed and counted in a scintillation counter. The background counts (determined by the counts in the wells with no enzyme) are subtracted from each sample and the % release calculated in relation to the wells with enzyme only and no inhibitor. The triplicate values for each point are averaged and the data graphed as percent release versus drug concentration. IC50's are determined from the point at which 50% inhibition of release of radiolabeled collagen is obtained.
To determine the identity of the active collagenases in cartilage conditioned medium, assays were carried out using collagen as a substrate, cartilage conditioned medium containing collagenase activity and inhibtors of varying selectivity. The cartilage conditioned medium was collected during the time at which collagen degradation was occurring and thus is representative of the collagenases responsible for the collagen breakdown. Assays were carried out as outlined above except that instead of using recombinant MMP-13 or recombinant MMP-1, cartilage conditioned medium was the enzyme source. […]

[3] = system: bovine nasal cartilage explants; experiment: IL-1 Induced Cartilage Collagen Degradation From Bovine Nasal Cartilage (cartilage explant assay); format: cell-based; details: Bos taurus
Description: This assay uses bovine nasal cartilage explants which are commonly used to test the efficacy of various compounds to inhibit either IL-1 induced proteoglycan degradation or IL-1 induced collagen degradation. Bovine nasal cartilage is a tissue that is very similar to articular cartilage, i.e. chondrocytes surrounded by a matrix that is primarily type II collagen and aggrecan. The tissue is used because it: (1) is very similar to articular cartilage, (2) is readily available, (3) is relatively homogeneous, and (4) degrades with predictable kinetics after IL-1 stimulation.
Two variations of this assay have been used to assay compounds. Both variations give similar data. The two variations are described below:
Three plugs of bovine nasal cartilage (approximately 2 mm diameter x 1.5 mm long) are placed into each well of a 24 well tissue culture plate. One ml of serumless medium is then added to each well. Compounds are prepared as 10 mM stock solutions in DMSO and then diluted appropriately in serumless medium to final concentrations, e.g., 50, 500 and 5000 nM. Each concentration is assayed in triplicate.
Human recombinant IL-1α (5ng/mL) (IL-1) is added to triplicate control wells and to each well containing drug. Triplicate control wells are also set up in which neither drug nor IL-1 are added. The medium is removed and fresh medium containing IL-1 and the appropriate drug concentrations is added on days 6, 12, 18 and 24 or every 3 - 4 days if necessary. The media removed at each time point is stored at -20°C for later analysis. When the cartilage in the IL-1 alone wells has almost completely resorbed (about day 21), the experiment is terminated. The medium, is removed and stored. Aliquots (100 ul) from each well at each time point are pooled, digested with papain and then analyzed for hydroxyproline content. Background hydroxyproline (average of wells with no IL-1 and no drug) is subtracted from each data point and the average calculated for each triplicate. The data is then expressed as a percent of the IL-1 alone average value and plotted. The IC50 is determined from this plot.
The experimental set-up is the same as outlined above in Variation 1, until day 12. On day 12, the conditioned medium from each well is removed and frozen. Then one ml of phosphate buffered saline (PBS) containing 0.5 µg/ml trypsin is added to each well and incubation continued for a further 48 hours at 37°C. After 48 hours incubation in trypsin, the PBS solution is removed. Aliquots (50 µl) of the PBS/trypsin solution and the previous two time points (days 6 and 12) are pooled. hydrolyzed and hydroxyproline content determined. Background hydroxyproline (average of wells with no IL-1 and no drug) is subtracted from each data point and the average calculated for each triplicate. The data is then expressed as a percent of the IL-1 alone average value and plotted. The IC50 is determined from this plot. In this variation, the time course of the experiment is shortened considerably. The addition of trypsin for 48 hours after 12 days of IL-1 stimulation likely releases any type II collagen that has been damaged by collagenase activity but not yet released from the cartilage matrix. In the absence of IL-1 stimulation, trypsin treatment produces only low background levels of collagen degradation in the cartilage explants.

[4] = molecular target: T1, MMP-13; experiment: biochemical
Experimental: as §1, with “Collagenase activity is directly proportional to the amount of collagen solubilized, determined by the proportion of radioactivity released into the supernatant as measured in a standard scintillation counter.” left out
(§5) For determining the selectivity of compounds for MMP-13 versus MMP-1 using collagen as a substrate, the following procedure is used. Recombinant human proMMP-13 or proMMP-1 is activated according to the procedures outlined in Experiment 1. The activated MMP-13 or MMP-1 is diluted to 0.6 ug/ml with buffer ( 50 mM Tris pH 7.5, 150 mM NaCI, 10 mM CaCl2, 1 uM ZnCl2, 0.05% Brij-35, 0.02% sodium azide).
as §2, §3, §4

[5] = molecular target: T2, Human recombinant collagenase-1 (Homo sapiens, UniProt P03956); experiment: Inhibition of Human Collagenase (MMP-1), fluorescence assay; format: biochemical
T2 sequence (P03956 100-469): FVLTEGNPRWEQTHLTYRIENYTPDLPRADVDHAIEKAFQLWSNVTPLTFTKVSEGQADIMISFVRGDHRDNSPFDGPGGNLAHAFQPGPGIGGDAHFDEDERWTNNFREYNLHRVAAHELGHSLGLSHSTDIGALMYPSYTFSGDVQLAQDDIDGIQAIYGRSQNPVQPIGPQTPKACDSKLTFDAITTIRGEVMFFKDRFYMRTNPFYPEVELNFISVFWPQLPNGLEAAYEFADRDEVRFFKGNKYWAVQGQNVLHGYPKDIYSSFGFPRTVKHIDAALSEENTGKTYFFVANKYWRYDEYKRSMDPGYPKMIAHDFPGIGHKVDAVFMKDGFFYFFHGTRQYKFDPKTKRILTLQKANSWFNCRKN
Experimental: Human recombinant collagenase-1 is activated with trypsin.
The final concentration of inhibitor will be a 1:4 dilution after addition of enzyme and substrate.
Final concentration of collagenase in the assay is 60 ng/ml.
Fluorescence versus time is then plotted for both the blank and collagenase containing samples (data from triplicate determinations is averaged). […] The zero time is used as a blank for each compound at each concentration and these values are subtracted from the 120 minute data.

[6] = molecular target: T3, MMP-1 (Homo sapiens, UniProt P03956); experiment: biochemical
T3 sequence (P03956 100-469): T2 sequence (P03956 100-469)
Experimental: as §1, with “Collagenase activity is directly proportional to the amount of collagen solubilized, determined by the proportion of radioactivity released into the supernatant as measured in a standard scintillation counter.” left out
as §5, §2, §3, §4

[7] = clinical trial data, Proceedings of ASCO, 15, 490 (1996); cited from earlier work
[8] = Table 2, collagen film substrate
[9] = Table 3 (repeated for comparison)
[10] = 504 h, Variation 1: IL-1 stimulation until about day 21, hydroxyproline content, read-out: Cartilage Explant Assay IC50 Variation 1
[11] = read-out: Average IC50 (variation 1 and 2), average of variation 1 and 2
[12] = Variation 2: 12 days IL-1, then trypsin 48 hours, hydroxyproline content, read-out: Cartilage Explant Assay IC50 Variation 2

SMILES | IC50 [1] | inhibition of the cartilage conditioned medium collagenase activity (in words) [2] | IC50 [2, 8] | IC50 [2, 9] | IC50 [3, 10] | IC50 [3, 11] | IC50 [3, 12] | IC50 [4] | IC50 ([1]; fluorescent peptide substrate, read-out: MMP-13 Fluor. IC50) | IC50 ([5]; fluorescent peptide substrate, read-out: MMP-1 Fluor. IC50) | IC50 ([4]; Table 2, type I collagen film substrate, read-out: MMP-13 Type 1 Collagen IC50) | IC50 ([6]; Table 2, type I collagen film substrate, read-out: MMP-1 Type I Collagen IC50) | IC50 [5] | IC50 [6] | connective tissue side effects [7]
CNC(=O)[C@H](Cc1ccc(OC)cc1)NC(=O)C(CC(=O)NO)CC(C)C (stereo partly drawn) [Example 1, reference compound] | 1.5 nM | potent inhibitor | 10 nM | 10 nM | 60 nM | 90 nM | 50 nM | 1.5 nM | – | – | – | – | – | – | –
O=C(CN(Cc1cccnc1)S(=O)(=O)c1ccc(OCc2ccccc2)cc1)NO [Example 2] | – | potent inhibitors | 220 nM | 220 nM | 900 nM | 725 nM | 550 nM | – | 5.4 nM | 17700 nM | 52 nM | 22000 nM | – | – | –
CNC(=O)C(Cc1ccc(OC)cc1)NC(=O)C(CCCCOc1ccccc1)CP(=O)(O)Cc1ccc(Cc2ccccc2)cc1 (stereo not drawn) [Example 3] | 70 nM | potent inhibitors | 400 nM | 400 nM | – | – | 830 nM | 40 nM | – | – | – | – | 21700 nM | 40000 nM | –
CNC(=O)[C@@H](NC(=O)[C@H](CC(C)C)[C@H](O)C(=O)NO)C(C)(C)C [marimastat] | – | – | – | – | – | – | – | – | – | – | – | – | – | – | significant dose-related connective tissue side effects
